Values quoted from earlier work, collected in PubChem BioAssay AID493017.
Each block holds one molecule with its values, some of them ahead of it.

Legend:
Assay in all cases: PubChem AID 493017
[1] = target: Estrogen receptor (Homo sapiens) (UniProt P03372); settings: WOMBAT literature affinities, multiple human targets, ERalpha, gene ESR1, NCBI gene 2099; for Ki: binding affinity Ki; for Kd: binding affinity Kd
[2] = test system: WOMBAT literature affinities, multiple human targets
[3] = target: Peroxisome proliferator-activated receptor gamma (Homo sapiens) (UniProt P37231); settings: WOMBAT literature affinities, multiple human targets, PPAR-gamma, gene PPARG, NCBI gene 5468; for Ki: binding affinity Ki
Chain of Peroxisome proliferator-activated receptor gamma (Homo sapiens) (P37231 whole entry, looked up): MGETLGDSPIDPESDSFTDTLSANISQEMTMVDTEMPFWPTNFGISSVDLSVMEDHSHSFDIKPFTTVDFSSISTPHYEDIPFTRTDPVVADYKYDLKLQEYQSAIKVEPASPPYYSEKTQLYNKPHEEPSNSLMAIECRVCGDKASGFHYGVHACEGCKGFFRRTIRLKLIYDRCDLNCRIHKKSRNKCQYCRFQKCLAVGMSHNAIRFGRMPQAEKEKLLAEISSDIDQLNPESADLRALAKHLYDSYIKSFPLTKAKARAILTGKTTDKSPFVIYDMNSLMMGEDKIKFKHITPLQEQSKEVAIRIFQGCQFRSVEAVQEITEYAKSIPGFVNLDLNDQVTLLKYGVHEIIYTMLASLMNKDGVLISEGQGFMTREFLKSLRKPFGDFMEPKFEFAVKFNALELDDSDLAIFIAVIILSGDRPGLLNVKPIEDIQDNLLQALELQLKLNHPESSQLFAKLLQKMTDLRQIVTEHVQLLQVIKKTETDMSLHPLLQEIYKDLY

[4] = HIV-1 RT, gene HIV-1 reverse transcriptase

Chain of Estrogen receptor (Homo sapiens) (P03372 whole entry, looked up): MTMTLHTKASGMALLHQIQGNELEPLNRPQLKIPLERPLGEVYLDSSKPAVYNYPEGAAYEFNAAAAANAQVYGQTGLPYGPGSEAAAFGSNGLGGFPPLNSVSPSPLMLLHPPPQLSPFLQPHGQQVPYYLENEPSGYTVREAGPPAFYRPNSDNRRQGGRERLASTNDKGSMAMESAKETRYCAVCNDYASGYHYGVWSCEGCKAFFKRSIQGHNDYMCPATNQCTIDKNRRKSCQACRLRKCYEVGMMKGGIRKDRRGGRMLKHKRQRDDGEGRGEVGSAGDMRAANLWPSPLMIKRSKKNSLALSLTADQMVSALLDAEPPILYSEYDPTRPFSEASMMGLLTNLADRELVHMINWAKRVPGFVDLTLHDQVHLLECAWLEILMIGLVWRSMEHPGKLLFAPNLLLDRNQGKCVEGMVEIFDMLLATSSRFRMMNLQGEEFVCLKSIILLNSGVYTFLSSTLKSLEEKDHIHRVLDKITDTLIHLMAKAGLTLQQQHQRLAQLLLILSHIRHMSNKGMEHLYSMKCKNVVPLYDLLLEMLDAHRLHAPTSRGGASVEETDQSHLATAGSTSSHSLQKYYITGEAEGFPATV

Compound: CC(C)c1cc(C(C)C)n2nc(-c3ccc(O)cc3)c(-c3cccc(O)c3)c2n1
Ki [1]: 2000 nM

Compound: O=C1OC(CCc2ccccc2)(c2ccccc2)CC(O)=C1SCCc1ccccc1 (stereo not given)
IC50 ([2]; HIV-1 P, gene HIV-1 protease): 51 nM

Compound: CC(=O)NC(CO)C(=O)NC(CC(C)C)C(=O)NC(CC(N)=O)C(=O)NC(Cc1ccccc1)C(O)CN1CCCC1C(=O)OC(C)(C)C (stereo not given)
IC50 ([2]; HIV-1 P, gene HIV-1 protease): 14 nM

Compound: CCc1c(Cc2ccccc2)nc(-c2ccc(O)cc2)nc1-c1ccc(O)cc1
IC50 [1]: 2.08 nM

Compound: CCC1(CC)OC(=O)Nc2ccc(Cl)cc21
IC50 [2, 4]: 16.5 nM

Compound: Cc1cc(SC2=C(O)CC(CCc3ccc(O)cc3)(C(C)C)OC2=O)c(C(C)(C)C)cc1OS(C)(=O)=O (stereo not given)
IC50 ([2]; HIV-1 P, gene HIV-1 protease): 2.2 nM

Compound: CC1c2ccc(O)cc2C2CC1c1cc(O)ccc1C2C (stereo not given)
Kd [1]: 4290 nM

Compound: Cc1cc(SC2=C(O)CC(CCc3ccc(O)cc3)(c3ccc(O)cc3)OC2=O)c(C(C)(C)C)cc1CO (stereo not given)
IC50 ([2]; HIV-1 P, gene HIV-1 protease): 120 nM

Compound: CCc1c(-c2ccc(O)cc2)oc(-c2ccc(O)cc2)c1-c1ccc(O)cc1
Kd [1]: 0.214 nM

Compound: Cc1cccc(NC(=S)NC(C)c2ccccc2)n1 (stereo not given)
IC50 [2, 4]: 1700 nM

Compound: CCC(=C(c1ccccc1)c1ccnn1OCCCN(C)C)c1ccccc1
IC50 [1]: 1400 nM

Compound: CSCCC(NC(=O)C(CCO)N(Cc1ccccc1)C(=O)C(CC(C)C)NC(=O)OCc1ccccc1)C(=O)NC(C)(C)C (stereo not given)
IC50 ([2]; HIV-1 P, gene HIV-1 protease): 365 nM

Compound: CCOC(=O)c1cccn1S(=O)(=O)c1cc(C)ccc1[N+](=O)[O-]
IC50 [2, 4]: 5000 nM

Compound: CCC1=C(c2ccc(O)cc2)C(C(=O)Nc2ccc(OCCN(C)C)cc2)c2cc(O)ccc21 (stereo not given)
Ki [1]: 1420 nM

Compound: Oc1ccc(-c2c(-c3ccccc3)nn3cccnc23)cc1
Ki [1]: 2000 nM

Compound: CCc1c(Sc2cc(C)cc(C)c2)n(CC=Cc2ccco2)c(=O)[nH]c1=O
IC50 [2, 4]: 40 nM

Compound: CCC(=C(c1ccc(O)cc1)c1ccc(OCCN(C)CCON=Cc2ccc(O)c(C(N)=O)c2)cc1)c1ccccc1
IC50 [1]: 300 nM

Compound: Oc1ccc2nn(-c3ccccc3)c(Cl)c2c1
IC50 [1]: 1330 nM

Compound: COC(=O)CCCC=C(c1cc(C)c(OC)c(C(=O)OC)c1)c1cc(C)c(OC)c(C(=O)OC)c1
IC50 [2, 4]: 1000 nM

Compound: O=C1Nc2ccc(Cl)cc2[C@@](C#CC2CC2)(C(F)(F)F)N1
IC50 [2, 4]: 31 nM

Compound: Oc1ccc(-c2c(-c3cccc(O)c3)nn3c(C(F)(F)F)cc(C(F)(F)F)nc23)cc1
Ki [1]: 2000 nM

Compound: CCCc1c(-c2ccc(O)cc2)nn(-c2ccc(O)cc2)c1C1CCCC1
Kd [1]: 8300 nM

Compound: O=C1c2ccccc2C(=O)N1CCOC(=S)N(C(=O)c1cccnc1Cl)c1ccc(Cl)cc1
IC50 [2, 4]: 2000 nM

Compound: CCc1nc(-c2ccc(O)cc2)c(-c2ccc(O)cc2)nc1-c1ccc(O)cc1
IC50 [1]: 2.38 nM

Compound: CSCCC(NC(=O)C(CO)N(Cc1ccccc1)Cc1ccccc1)C(=O)NC(C)(C)C (stereo not given)
IC50 ([2]; HIV-1 P, gene HIV-1 protease): 2220 nM

Other lines, results leading:

Ki [1]: 63.3 nM
Compound: Oc1ccc(C2=C(c3ccccc3)c3ccc(O)cc3C2)cc1

IC50 [2, 4]: 260 nM
Compound: Cc1cc(C)cc(Sc2c(C)c(=O)[nH]c(=O)n2COCCO)c1

Ki [3]: 794 nM
Compound: O=C(C1=C(NC(Cc2ccc(OCc3ccccc3)cc2)C(=O)O)CCCC1)c1ccccc1 (stereo not given)

IC50 [2, 4]: 6.8 nM
Compound: CC(C)c1c(Sc2ccccc2)n(COCc2ccccc2)c(=S)[nH]c1=O

Ki [1]: 2480 nM
Compound: CCC(=C(Cc1ccc(OCCN2CCOCC2)cc1)c1ccccc1)c1ccccc1

IC50 [1]: 0.11 nM
Compound: CCCc1nc(-c2ccc(O)cc2)c(CCC)nc1-c1ccc(O)cc1

IC50 ([2]; HIV-1 P, gene HIV-1 protease): 12 nM
Compound: CC(C)(C)OC(=O)NC(Cc1ccccc1)C(O)C(O)C(Cc1ccccc1)NC(=O)OC(C)(C)C (stereo not given)

IC50 [3]: 99 nM
Compound: COc1ccc2c(c1)c(Cc1cccc(OCC(=O)O)c1)c(C)n2C(=O)c1ccc(Cl)cc1

Ki [1]: 25.3 nM
Compound: Oc1ccc2c(c1)CCC21C=C(c2ccc(OCCN3CCCCC3)cc2)c2cc(O)ccc21 (stereo not given)

Kd [1]: 5000 nM
Compound: O=C1c2cc(O)ccc2C2CC1c1ccc(O)cc1C2=O

IC50 [1]: 2800 nM
Compound: CCC(=C(c1ccccc1)c1cnn(OCCN(C)C)c1)c1ccccc1

IC50 [1]: 2000 nM
Compound: COc1ccc2c(C(=O)c3ccc(OCCN4CCCCC4)cc3)c(-c3ccc(O)cc3)sc2c1

IC50 [1]: 10000 nM
Compound: CCC(=C(c1ccccc1)c1ccnn1O)c1ccccc1

IC50 [2, 4]: 19 nM
Compound: CCOCn1c(Sc2ccccc2)c(CC)c(=O)[nH]c1=O

Ki [1]: 2850 nM
Compound: O=C(O)c1ccc(C2=C(c3ccc(O)cc3)Cc3cc(O)ccc32)cc1

IC50 ([2]; HIV-1 P, gene HIV-1 protease): 1100 nM
Compound: CC(C)(C)NC(=O)c1ccccc1CCC(O)Cc1ccc2ccccc2c1C(=O)NC(C)(C)C (stereo not given)

Ki [3]: 11.7 nM
Compound: CC(=CC(=O)c1ccccc1)NC(Cc1ccc(OCc2ccccc2)cc1)C(=O)O (stereo not given)

IC50 [2, 4]: 1900 nM
Compound: COC(=O)c1c(Br)c(OC)c2c(c1-c1c3c(c(OC)c(Br)c1C(=O)OC)OCO3)OCO2

IC50 [2, 4]: 3000 nM
Compound: CCCCCCCCOC(=O)c1cc2c([nH]c3ccccc32)c(-c2ccc3c(n2)C(=O)C(NC(C)=O)=CC3=O)n1

Kd [1]: 2 nM
Compound: CC1(C)CC(c2ccc(O)cc2)=C(c2ccc(O)cc2)CC1(C)C

IC50 ([2]; HIV-1 P, gene HIV-1 protease): 2.5 nM
Compound: CC(C)(C)OC(=O)NC(Cc1ccccc1)C(O)C[C@]1(Cc2ccccc2)NC=C(C2c3ccccc3C3NC(=O)OC32)C1=O (stereo not given in full)

IC50 [2, 4]: 250 nM
Compound: CCc1c(Cc2ccccc2)n(CCOC)c(=O)[nH]c1=O

IC50 [2, 4]: 440 nM
Compound: O=C1Nc2ccc(Cl)cc2[C@@](C#CC2CC2)(C(F)(F)F)C1OCc1ccccc1 (stereo not given in full)

IC50 [1]: 10000 nM
Compound: CCC(=C(c1ccccc1)c1ccnn1OCc1ccccc1)c1ccccc1

Kd [1]: 3000 nM
Compound: COc1ccc2c(c1)CN(c1ccc(OCCN3CCCCC3)cc1)C1=C2CCc2cc(OC)ccc21
